Results as given in patent US7511041B2, “Fused azole-pyrimidine derivatives” (Bayer Pharmaceuticals Corporation, priority 2002, dated 2009).
Structures can show the parent of a compound that is named as a salt.

| melting point | SMILES |
| --- | --- |
| > 300 °C | COc1cc2c(cc1OC)C1=NCCN1C(/C=C(\O)c1cccnc1)=N2 (as salt: hydrochloride) [Example 1-2, (Z)-2-(8,9-Dimethoxy-2,3-dihydroimidazo[1,2-c]quinazolin-5-yl)-1-(3-pyridinyl)-ethenol hydrochloride] |
| 249 to 251 °C | COc1c(OCCCC(=O)O)ccc2c1N=C(/C=C(\O)c1cccnc1)N1CCN=C21 (as salt: hydrochloride) [Example 1-7, 4-{[5-(2-Hydroxy-2-pyridin-3-ylvinyl)-7-methoxy-2,3-dihydroimidazo[1,2-c]quinazolin-8-yl]oxy}butanoic acid hydrochloride] |
| 263 °C (dec.) | O/C(=C\c1nc2ccccc2c2nccn12)c1cccs1 (as salt: hydrochloride) [Example 3-1, (Z)-2-Imidazo[1,2-c]quinazolin-5-yl-1-(2-thienyl)ethenol] |
| 228 °C (dec.) | O=C(Nc1nc2ccccc2c2nccn12)c1cccnc1 (as salt: hydrochloride) [Example 4-2, N-Imidazo[1,2-c]quinazolin-5-ylnicotinamide hydrochloride] |
| 249 to 250 °C | COc1ccc2c(c1OC)N=C(/C=C(\O)c1cccnc1)N1CCN=C21.Cl [Example 1-11] |
| 215 °C (dec.) | COc1c(OCCO)ccc2c1N=C(/C=C(\O)c1cccnc1)N1CCN=C21.Cl [Example 1-17] |
| 235 °C (dec.) | COc1c(OCC(N)=O)ccc2c1N=C(/C=C(\O)c1cccnc1)N1CCN=C21.Cl [Example 1-24] |
| 205 °C (dec.) | COc1c(OCC(=O)N(C)C)ccc2c1N=C(/C=C(\O)c1cccnc1)N1CCN=C21.Cl [Example 1-28] |
| 240 to 241 °C | COc1c(OCC(=O)N2CCOCC2)ccc2c1N=C(/C=C(\O)c1cccnc1)N1CCN=C21.Cl [Example 1-30] |
| 270 °C | COc1c(C)ccc2c1N=C(/C=C(\O)c1ccc3[nH]cnc3c1)N1CCN=C21.Cl [Example 1-35] |
| 215 °C | COc1ccc2c(c1OCCN1CCOCC1)N=C(/C=C(\O)c1cccnc1)N1CCN=C21.Cl [Example 1-37] |
| 256 °C (dec.) | Cc1ccc2c(c1OCCN1CCOCC1)N=C(/C=C(\O)c1cccnc1)N1CCN=C21.Cl [Example 1-40] |
| 290 °C (dec.) | COc1cc(OC)c2c(c1)C1=NCCN1C(/C=C(\O)c1cccnc1)=N2.Cl [Example 1-43] |
| > 285 °C | Cc1cc(Br)c2c(c1)C1=NCCN1C(/C=C(\O)c1ccc3[nH]cnc3c1)=N2.Cl [Example 1-48] |
| 212 to 215 °C | COc1cc2c(cc1OC)C1=NCCN1C(/C=C(\O)c1ccc3[nH]cnc3c1)=N2 [Example 1-56] |
| 266 to 268 °C | COc1cc2c(cc1OC)C1=NCCN1C(/C=C(\O)c1cccs1)=N2.Cl [Example 1-59] |
| 268 to 271 °C | COc1cc2c(cc1OC)C1=NCCN1C(/C=C(\O)c1sc(C)nc1C)=N2.Cl [Example 1-61] |
| 285 °C | COc1cc2c(c(OC)c1C)N=C(/C=C(\O)c1cccnc1)N1CCN=C21.Cl [Example 1-63] |
| > 285 °C | COc1cc2c(c(OC)c1C)N=C(/C=C(\O)c1ccc(NC(C)=O)nc1)N1CCN=C21.Cl [Example 1-65] |
| > 285 °C | COc1cc2c(c(OC)c1C)N=C(/C=C(\O)c1ccc3[nH]cnc3c1)N1CCN=C21.Cl [Example 1-67] |
| 285 °C | COc1cccc2c1N=C(/C=C(\O)c1cccnc1)N1CCN=C21.Cl [Example 1-69] |
| 246 °C | Cl.O/C(=C\C1=Nc2c(Br)cccc2C2=NCCN12)c1cccnc1 [Example 1-74] |
| > 290 °C | Cc1cccc2c1N=C(/C=C(\O)c1cccnc1)N1CCN=C21.Cl [Example 1-76] |

| melting point | SMILES |
| --- | --- |
| > 285 °C | CC(=O)Nc1ccc(/C(O)=C/C2=Nc3c(C)cccc3C3=NCCN23)cn1.Cl [Example 1-78] |
| > 290 °C | Cl.O/C(=C\C1=Nc2c(cccc2C(F)(F)F)C2=NCCN12)c1cccnc1 [Example 1-81] |
| 261 to 262 °C | Cl.O/C(=C\C1=Nc2c(OCCN3CCOCC3)cccc2C2=NCCN12)c1cccnc1 [Example 1-85] |
| > 300 °C | Cl.O/C(=C\C1=Nc2c(OCC3CC3)cccc2C2=NCCN12)c1cccnc1 [Example 1-89] |
| > 300 °C | Cl.O/C(=C\C1=Nc2cc(N3CCOCC3)ccc2C2=NCCN12)c1cccnc1 [Example 1-95] |
| 246 °C | CC(=O)Nc1ccc(/C(O)=C/C2=Nc3cc(N4CCOCC4)ccc3C3=NCCN23)cn1.Cl [Example 1-97] |
| 312 °C (dec.) | Cl.O/C(=C\C1=Nc2cc(N3CCOCC3)ccc2C2=NCCN12)c1cncc(O)c1 [Example 1-99] |
| 286 °C (dec.) | Cl.O/C(=C\C1=Nc2cc(N3CCOCC3)ccc2C2=NCCN12)c1ccc2[nH]cnc2c1 [Example 1-101] |
| 257 °C | O/C(=C\C1=Nc2cc(N3CCN(Cc4ccccc4)CC3)ccc2C2=NCCN12)c1cccnc1 [Example 1-103] |
| 280 °C (dec.) | CC(=O)Nc1ccc(/C(O)=C/C2=Nc3cc(N4CCN(C)CC4)ccc3C3=NCCN23)cn1.Cl [Example 1-106] |
| 242 °C | Cl.O/C(=C\C1=Nc2cc(CN3CCOCC3)ccc2C2=NCCN12)c1cccnc1 [Example 1-112] |
| 260 °C | CC(=O)Nc1ccc(/C(O)=C/C2=Nc3cc(CN4CCOCC4)ccc3C3=NCCN23)cn1.Cl [Example 1-114] |
| 280 °C (dec.) | O/C(=C\C1=Nc2cc(Cl)ccc2C2=NCCN12)c1cccnc1 [Example 1-117] |
| > 330 °C | Cc1ccc2c(c1)N=C(/C=C(\O)c1cccnc1)N1CCN=C21.Cl [Example 1-120] |
| > 300 °C | COc1ccc2c(c1)C1=NCCN1C(/C=C(\O)c1cccnc1)=N2.Cl [Example 1-127] |
| > 330 °C | O/C(=C\C1=Nc2ccc(Cl)cc2C2=NCCN12)c1cccnc1 [Example 1-130] |
| > 290 °C | Cc1ccc2c(c1)C1=NCCN1C(/C=C(\O)c1cccnc1)=N2.Cl [Example 1-132] |
| 260 °C (dec.) | Cl.O/C(=C\C1=Nc2ccccc2C2=NCCN12)c1cccnc1 [Example 1-135] |
| > 300 °C | Cc1ccc(/C(O)=C/C2=Nc3ccccc3C3=NCCN23)cn1.Cl [Example 1-137] |
| 217 to 222 °C | Cl.O/C(=C\C1=Nc2ccccc2C2=NCCN12)c1cnccn1 [Example 1-142] |
| > 300 °C | Cl.O/C(=C\C1=Nc2ccccc2C2=NCCN12)c1ccco1 [Example 1-144] |
| > 300 °C | Cl.O/C(=C\C1=Nc2ccccc2C2=NCCN12)c1cccs1 [Example 1-147] |
| 245 °C (dec.) | Cl.O/C(=C\C1=Nc2ccccc2C2=NCCN12)c1ccno1 [Example 1-153] |

| melting point | SMILES |
| --- | --- |
| 235 to 240 °C | Cl.O/C(=C\C1=Nc2ccccc2C2=NCCN12)c1ccccn1 [Example 1-174] |
| 235 °C (dec.) | Cl.O/C(=C\C1=Nc2ccccc2C2=NCCN12)c1ccncc1 [Example 1-176] |
| > 300 °C | Cl.O/C(=C\C1=Nc2ccccc2C2=NCCN12)c1csc2ccccc12 [Example 1-181] |
| 217 to 218 °C | COc1c(OCc2nn[nH]n2)ccc2c1N=C(/C=C(\O)c1cccnc1)N1CCN=C21.Cl [Example 1-197] |
| 259 °C (dec.) | Cl.O/C(=C\C1=Nc2c(CN3CCOCC3)cccc2C2=NCCN12)c1cccnc1 [Example 1-207] |
| > 260 °C | CC(=O)Nc1ccc(/C(O)=C/C2=Nc3c(CN4CCOCC4)cccc3C3=NCCN23)cn1.Cl [Example 1-209] |
| 267 °C (dec.) | Cc1ccc(C(=O)NC2=Nc3cc(N4CCOCC4)ccc3C3=NCCN23)cn1.Cl [Example 2-14] |
| 227 °C | CC(=O)Nc1ccc(C(=O)NC2=Nc3cc(N4CCOCC4)ccc3C3=NCCN23)cc1 [Example 2-15] |
| 292 °C (dec.) | COc1ccc2c(c1)N=C(NC(=O)c1cccnc1)N1CCN=C21.Cl [Example 2-21] |
| 273 °C (dec.) | COc1ccc2c(c1)N=C(NC(=O)c1ccc(N)nc1)N1CCN=C21.Cl [Example 2-24] |
| 233 °C | COc1ccc2c(c1)N=C(NC(=O)c1ccc3[nH]cnc3c1)N1CCN=C21.Cl [Example 2-26] |
| 315 °C | Cc1ccc2c(c1)N=C(NC(=O)c1cccnc1)N1CCN=C21.Cl [Example 2-28] |
| 276 °C | Cc1ccc2c(c1)N=C(NC(=O)c1cccs1)N1CCN=C21.Cl [Example 2-32] |
| 270 °C | Cl.O=C(NC1=Nc2cc(Cl)ccc2C2=NCCN12)c1ccc2[nH]cnc2c1 [Example 2-40] |
| 278 °C (dec.) | COc1ccc2c(c1OC)N=C(NC(=O)c1ccc3[nH]cnc3c1)N1CCN=C21.Cl [Example 2-50] |
| 210 °C (dec.) | COc1ccc2c(c1OC)N=C(NC(=O)c1cnc3[nH]cnc3c1)N1CCN=C21.Cl [Example 2-52] |
| 260 °C (dec.) | COc1cc2c(cc1OC)C1=NCCN1C(NC(=O)c1cncc(O)c1)=N2.Cl [Example 2-55] |
| 279 °C | COc1cc2c(cc1OC)C1=NCCN1C(NC(=O)c1ccc(NC(C)=O)nc1)=N2.Cl [Example 2-58] |
| 276 °C | COc1cc2c(cc1OC)C1=NCCN1C(NC(=O)c1ccc3[nH]cnc3c1)=N2.Cl [Example 2-61] |
| 298 °C | COc1ccc2c(c1Br)N=C(NC(=O)c1cccnc1)N1CCN=C21.Cl [Example 2-66] |
| 270 °C (dec.) | COc1cc(OC)c2c(c1)C1=NCCN1C(NC(=O)c1ccc(NC(C)=O)nc1)=N2.Cl [Example 2-71] |
| 289 °C (dec.) | COc1cc(OC)c2c(c1)C1=NCCN1C(NC(=O)c1ccc3[nH]cnc3c1)=N2.Cl [Example 2-73] |

| SMILES | melting point |
| --- | --- |
| COc1c(O)ccc2c1N=C(/C=C(\O)c1cccnc1)N1CCN=C21 (as salt: hydrochloride) [Example 1-4, 5-(2-Hydroxy-2-pyridin-3-ylvinyl)-7-methoxy-2,3-dihydroimidazo[1,2-c]quinazolin-8-ol hydrochloride] | 245 °C |
| O=C(NC1=Nc2ccccc2C2=NCCN12)c1cccnc1 (as salt: hydrochloride) [Example 2-2, N-(2,3-Dihydroimidazo[1,2-c]quinazolin-5-yl)nicotinamide hydrochloride] | 289 °C (dec.) |
